From patent publication US4923861A, “6-(2-(2-(Substituted amino)-3-quinolinyl) ethenyl and ethyl) tetrahydro-4-hydroxypyran-2-one inhibitors of cholesterol biosynthesis” (Warner-Lambert Company, priority 1989, dated 1990)
pIC50: −log10 of the molar value. Structures can show the parent of a compound that is named as a salt.

Key:
[1] = test system: cholesterol synthesis (plasma [14C]cholesterol); assay: AICS (Acute Inhibition of Cholesterol Synthesis) screen; assay type: in vivo, male Sprague-Dawley rats; conditions: cholestyramine-fed male rats, single oral gavage dose (dose not given), [1-14C]acetate i.p. one hour after dosing, blood after 50 minutes
Method: Additionally, the ability of compounds of the present invention to inhibit the biosynthesis of cholesterol was also measured by a method (designated AICS (Acute Inhibition of Cholesterol Synthesis) screen) which utilizes the procedure described by A. W. Alberts, et al, Proceedings of the National Academy of Sciences, Volume 77, pages 3957-3961 (1980).
In this method male Sprague-Dawley rats (200 g body weight) previously fed 5% cholestyramine for three days were randomly divided into groups (N=5/group) and given a single dose of vehicle (controls) or compound by an oral gavage at the indicated doses. One hour after drug dosing, all rats were injected intraperitoneally with sodium[1-^14 C]acetate (18.75 μCi/rat in 0.2 ml saline). After 50 minutes, blood samples were taken, plasma obtained by centrifugation, and plasma [^14 C]cholesterol measured after saponification and extraction.

[2] = test system: sterol synthesis (rat liver homogenate); assay: CSI (Cholesterol Synthesis Inhibition) screen; assay type: biochemical; conditions: 14C-acetate incorporation into nonsaponifiable lipid, one-hour period
Method: The ability of compounds of the present invention to inhibit the biosynthesis of cholesterol was measured by a method (designated CSI (Cholesterol Synthesis Inhibition) screen) which utilizes the procedure described by R. E. Dugan et al, Archives of Biochemistry and Biophysics, Volume 152, pages 21-27 (1972). In this method, the level of HMG-CoA enzyme activity in standard laboratory rats is increased by feeding the rats a chow diet containing 5% cholestyramine for four days, after which the rats are sacrificed.
The rat livers are homogenized, and the incorporation of ^14 C-acetate into nonsaponifiable lipid by the rat liver homogenate is measured. The micromolar concentration of compound required for 50% inhibition of sterol synthesis over a one-hour period is measured, and expressed as an IC50 value.

| SMILES | AICS % Inhibition [1] | pIC50 [2] |
| --- | --- | --- |
| CN(C)c1nc2ccccc2c(-c2ccc(F)cc2)c1/C=C/[C@@H]1C[C@@H](O)CC(=O)O1 (relative stereo) [1 (lactone), [4α,6β(E)]-6-[2-[2-(Dimethylamino)-4-(4-fluorophenyl)-3-quinolinyl]ethenyl]tetrahydro-4-hydroxy-2H-pyran-2-one] | 52% | – |
| CN(C)c1nc2ccccc2c(-c2ccc(F)cc2)c1/C=C/[C@@H](O)C[C@@H](O)CC(=O)O (relative stereo) [[R*,S*-(E)]-7-[2-dimethylamino)-4-(4-fluorophenyl)-3-quinolinyl]-3,5-dihydroxy-6-heptenoic acid, monosodium salt] | 49% | 7.33 |
